What was measured:
[1] = system: VEGFA (786-O cells); assay: VEGFA ELISA Assay (IC50); format: cell-based; conditions: 24 hours incubation, VEGFA in culture supernatant by ELISA
Protocol: 786-O cells in exponential growth phase were seeded in 96-well plate, the cell concentration was 65,000 cells per milliliter of culture medium, 180 ul per well. Compounds were serial diluted to the indicated concentration, and 20 ul compound solutions of different concentrations were added to the corresponding cell wells. The final compound concentrations were as follows (nM): 1.5, 4.6, 13.7, 41.2, 123.5, 370.4, 1111.1, 3333.3, 10000. After 24 hours of incubation, the cell culture supernatant was taken, and the VEGFA concentration was determined using an ELISA kit (purchased from abcam). Finally, the reaction was terminated, and the light absorbance value of each well was measured using a microplate reader at a wavelength of […], and IC50 was calculated by GraphPad Prism. Cell Titer-Glo reagent was used to measure cell viability.

[2] = system: HIF2α reporter cells (786-O-HIF2α-Luc cells); assay: Luciferase Assay (HIF2α reporter cells); format: cell-based; conditions: 18-20 h, Steady-Glo luminescence
Protocol: Luciferase LUC gene was transfected into 786-O cells (purchased from ATCC) using Lipofectamine 3000 Transfection Reagent (purchased from Invitrogen) to construct HIF2α reporter cells (786-O-HIF2α-Luc cells). Experiments were performed when 786-O-HIF2α-Luc cells were in logarithmic growth phase, culture medium (RPMI MEDIUM 1640, purchased from Invitrogen) was abandoned, the cells were rinsed with PBS three times; trypsin (TrypLE, purchased from invitrogen) was added to digest cells, the digestion was terminated by washing the cells with culture medium, 10% fetal bovine serum, 1% penicillin and streptomycin. The cells were collected by centrifugation, rinsed twice with PBS to remove the phenol red in the medium, and then resuspended the cells to an appropriate concentration, and detected the cell density and viability, and made sure the cell viability is above 90% before it can be used for experiments.
The gradient concentration compound was transferred into 384-well plate, 25 nl/well using Echo 550 (non-contact sonic pipetting system, purchased from Labcyte); the cells were seeded in 384-well plate, 4500 cells/well, with 25 μl of culture medium, to make the final concentrations as follows: 10000, 3333, 1111, 370, 123, 41.1, 13.7, 4.6, 1.5, 0.5 nM. Cells were incubated at 37° C., 5% CO2 for 18-20 h; Steady-Glo™ Luciferase Assay System (purchased from Promega) was added to 384 well-plate, 25 μl/well; the luminescence value was detected with Envision. The % inhibition rate was calculated according to the RLU (Record Luminescence) signal value of each well, and then the IC50 of the corresponding compound was calculated by Graphpad 8.0.

[3] = Homo sapiens, 786-0, 24 h, numeric values
[4] = Homo sapiens, 786-0, 24 h, class symbols

IC50 [1, 3] [nM] | IC50 [1, 4] [nM] | IC50 ([2]; class symbols) [nM] | Compound | also measured
6.2 |  |  | O[C@H]1c2c(C(F)(F)F)cn(-c3ccc(F)c(C(F)F)c3)c2CC[C@H]1F (single isomer, unassigned) [Example 104] | IC50 ([2]; numeric values): 22 nM
 | ≤ 500 | ≤ 500 | N#Cc1cc(-n2cc(C(F)(F)F)c3c2CCC(F)(F)[C@H]3F)ccc1F (single isomer, unassigned) [Example 196] | 
45.6 |  | ≤ 500 | O[C@H]1c2c(-c3cccs3)cn(-c3cc(F)cc(Cl)c3)c2CCC1(F)F [Example 48, (S)-1-(3-chloro-5-fluorophenyl)-5,5-difluoro-3-(thiophen-2-yl)-4,5,6,7-tetrahydro-1H-indol-4-ol] | 
 | ≤ 500 | ≤ 500 | O[C@H]1c2c(C(F)(F)F)cn(-c3cc(F)cc(F)c3)c2CCC1(F)F [Example 64, (S)-1-(3,5-difluorophenyl)-5,5-difluoro-3-(trifluoromethyl)-4,5,6,7-tetrahydro-1H-indol-4-ol] | 
 | 1500 to 10000 |  | OC1c2c(C(F)(F)F)cn(/C=C/c3ccccc3)c2CCC1(F)F (stereo not shown) [Example 181, (E)-5,5-difluoro-1-styryl-3-(trifluoromethyl)-4,5,6,7-tetrahydro-1H-indol-4-ol] | 
 | 500 to 1500 |  | O=C1c2c(C(F)(F)F)cn(-c3ccc(F)c(C(F)F)c3)c2CCC1(F)F [Example 190, 1-(3-(difluoromethyl)-4-fluorophenyl)-5,5-difluoro-3-(trifluoromethyl)-1,5,6,7-tetrahydro-4H-indol-4-one] | 
 | ≤ 500 |  | CS(=O)(=O)c1cn(-c2cc(F)cc(C#N)c2)c2c1C(O)C(F)CC2 (stereo not shown) [Example 193, 3-fluoro-5-(5-fluoro-4-hydroxy-3-(methylsulfonyl)-4,5,6,7-tetrahydro-1H-indol-1-yl)benzonitrile] | 
 | > 1500 |  | Fc1cc(Cl)cc(-n2cc(C(F)(F)F)c3c2CCc2cn[nH]c2-3)c1 [Example 202, 6-(3-chloro-5-fluorophenyl)-8-(trifluoromethyl)-1,4,5,6-tetrahydropyrrolo-[2,3-g]indazole] | 

The next lines start with the compound.

Compound | IC50 [1, 3] [nM] | IC50 [1, 4] [nM] | IC50 ([2]; class symbols) [nM] | also measured
OC1c2c(C(F)(F)F)cn(-c3cc(F)cc(Cl)c3)c2CCC1(F)F (stereo not shown) [Example 7, 1-(3-chloro-5-fluorophenyl)-5,5-difluoro-3-(trifluoromethyl)-4,5,6,7-tetrahydro-1H-indol-4-ol] | 30.7 |  |  | IC50 ([2]; numeric values): 57.7 nM
N#Cc1cc(F)cc(-n2cc(C(F)(F)F)c3c2CCC(F)(F)C3O)c1 (stereo not shown) [Example 12, 3-(5,5-difluoro-4-hydroxy-3-(trifluoromethyl)-4,5,6,7-tetrahydro-1H-indol-1-yl)-5-fluorobenzonitrile] | 67.5 |  | ≤ 500 | 
OC1c2c(C(F)(F)F)cn(-c3cccc(Cl)c3)c2CCC1(F)F (stereo not drawn) [Example 15, l-(3-chlorophenyl)-5,5-difluoro-3-(trifluoromethyl)-4,5,6,7-tetrahydro-1H-indol-4-ol] | 18.8 |  | ≤ 500 | 
N#Cc1cccc(-n2cc(C(F)(F)F)c3c2CCC(F)(F)C3O)c1 (stereo not shown) [Example 19, 3-(5,5-difluoro-4-hydroxy-3-(trifluoromethyl)-4,5,6,7-tetrahydro-1H-indol-1-yl)benzonitrile] |  | ≤ 500 | ≤ 500 | 
OC1c2c(C(F)(F)F)cn(-c3cc(Cl)cc(Cl)c3)c2CCC1(F)F (stereo not shown) [Example 20, 1-(3,5-dichlorophenyl)-5,5-difluoro-3-(trifluoromethyl)-4,5,6,7-tetrahydro-1H-indol-4-ol] |  | ≤ 500 | ≤ 500 | 
OC1CCCc2c1c(C(F)(F)F)cn2-c1cc(F)cc(F)c1 (stereo not shown) [Example 37, 1-(3,5-difluorophenyl)-3-(trifluoromethyl)-4,5,6,7-tetrahydro-1H-indol-4-ol] |  | ≤ 500 | ≤ 500 | 
Fc1cc(Cl)cc(-n2cc(C(F)(F)F)c3c2CCc2cnoc2-3)c1 [Example 201, 6-(3-chloro-5-fluorophenyl)-8-(trifluoromethyl)-5,6-dihydro-4-H-isoxazolo[5,4-e]indole] |  |  |  | IC50 ([1]; class symbols): > 1500 nM
